This passage reports IC50 results from article PMC6274214, “Antimicrobial Activity and Urease Inhibition of Schiff Bases Derived from Isoniazid and Fluorinated Benzaldehydes and of Their Copper(II) Complexes” (Molecules, 2016).

T1 sequence (P07374 whole entry): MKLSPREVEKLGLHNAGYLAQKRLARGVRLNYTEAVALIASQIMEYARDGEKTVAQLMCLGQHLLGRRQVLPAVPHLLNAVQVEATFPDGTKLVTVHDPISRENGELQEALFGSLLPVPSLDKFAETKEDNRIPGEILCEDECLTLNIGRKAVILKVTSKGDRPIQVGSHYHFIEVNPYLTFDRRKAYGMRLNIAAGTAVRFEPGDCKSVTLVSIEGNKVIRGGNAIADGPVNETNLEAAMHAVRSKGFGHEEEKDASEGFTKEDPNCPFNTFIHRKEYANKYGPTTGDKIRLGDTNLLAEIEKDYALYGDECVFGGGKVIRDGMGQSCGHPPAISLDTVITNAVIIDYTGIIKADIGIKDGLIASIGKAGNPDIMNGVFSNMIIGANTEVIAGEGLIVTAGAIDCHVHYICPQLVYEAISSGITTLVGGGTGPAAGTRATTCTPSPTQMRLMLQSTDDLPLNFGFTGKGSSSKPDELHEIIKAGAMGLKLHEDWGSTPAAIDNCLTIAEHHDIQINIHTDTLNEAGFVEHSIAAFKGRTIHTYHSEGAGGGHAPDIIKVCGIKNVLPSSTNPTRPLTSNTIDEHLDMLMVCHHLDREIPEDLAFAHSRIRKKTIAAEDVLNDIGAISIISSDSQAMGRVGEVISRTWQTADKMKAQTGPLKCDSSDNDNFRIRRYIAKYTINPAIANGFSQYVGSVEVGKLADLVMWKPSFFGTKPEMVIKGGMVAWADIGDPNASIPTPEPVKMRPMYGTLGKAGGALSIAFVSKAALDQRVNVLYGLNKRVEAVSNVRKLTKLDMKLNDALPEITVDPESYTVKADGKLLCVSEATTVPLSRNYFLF

The assay has as its target T1, jack bean urease (Canavalia ensiformis, UniProt P07374).
T1 construct: native jack bean urease
The experiment in a line: phenol red pH-rise urease assay, […] nm, time from pH […] to […]. It counts as biochemical.
The term IC50 denotes the midpoint of a concentration-inhibition curve. A low value points to higher potency. `O=C(NN=Cc1cccc(F)c1O)c1ccncc1` [L5, N-[(3-fluoro-2-hydroxyphenyl)methylidene]pyridine-4-carbohydrazide] gave an IC50 of over 500 µM.
The result for `CC(=O)NO` [Acetohydroxamic acid, reference compound] reads 185 ± 6.2 µM.
On to `O=C(NN=Cc1cc(F)ccc1O)c1ccncc1` [L4, N-[(5-fluoro-2-hydroxyphenyl)methylidene]pyridine-4-carbohydrazide], for which the 50% inhibitory concentration (IC50) is over 500 µM.
Turning to `O=C(NN=Cc1ccccc1)c1ccncc1` [L6, N-(benzylidene)pyridine-4-carbohydrazide], the IC50 is over 500 µM.
Regarding `O=C(NN=Cc1ccc(C(F)(F)F)cc1)c1ccncc1` [L1], the IC50 is over 500 µM.
The result for `O=C(NN=Cc1ccc(F)cc1)c1ccncc1` [L3, N-[(4-fluorophenyl)methylidene]pyridine-4-carbohydrazide monohydrate] reads over 500 µM.
To `O=C(NN=Cc1ccccc1C(F)(F)F)c1ccncc1` [L2, N-[[(2-trifluoromethyl)phenyl]methylidene]pyridine-4-carbohydrazide] belongs over 500 µM.
